Where a SMILES comes first, the peptide text is derived from it. Where no end group is shown, it is not given here. [ ]: non-standard residue; d: D form. βAla = NCCC(=O)O
Key:
[1] = Potentiometric titration of peptides with CuCl2: Cu(II) binding constants and competitivity index at pH 7.4; assay type: physicochemical; conditions: 25 °C, I=0.1 (KNO3); for CI7.4 (competitivity index, log K CuZ): calculated at pH 7.4 for 1 mM Cu(II), peptide L and virtual competitive ligand Z from potentiometric stability constants; for log *K4N (protonation-corrected stability constant of Cu(II) 4N complex): log β{CuHn-4L} – log β{HnL}; for log β CuH-2L / log β CuH-3L / log β CuL / log β CuH-1L / log β CuHL: 1 mM peptide, Cu:peptide 1:1, 1:2, 1:3
Procedure: (§1) Key factors for the investigation of the biological activity of metal complexes are the complex stability and the detection of the active species at a physiological pH value of 7.4.[27] Thus, potentiometric titration experiments of peptides a–g (b) alone and in the presence of CuCl2 (logarithmic protonation (log β) and protonation‐corrected Cu(II) binding constants (log *K)) and pH‐metric UV/VIS and CD spectroscopic measurements of 1–7 (2 [26]) were carried out (S‐5).
(§2) S-5 Protonation and complex stability constants
(§3) All bioanalytical experiments (DNA cleavage, DNA binding and ROS detection studies) and cell studies (cytotoxicity and cellular uptake) were carried out at pH 7.4. To characterize the speciation of the ATCUN metallopeptides at this pH, potentiometric titrations in combination with UV/VIS and CD spectroscopy were carried out for 1 and 3-7.
(§4) S-5.1 Potentiometry, UV/VIS and circular dichroism (CD) spectroscopy […]
(§5) Potentiometric titrations were performed on a 907 Titrando Automatic Titrator (Metrohm) using a Biotrode combined glass electrode (Metrohm), calibrated daily by nitric acid titrations with the use of standardized 100 mM NaOH (carbon dioxide-free) as a […]
Stock solution preparation:
Stock solutions of peptides a and c–g for UV/VIS and CD experiments were prepared by dissolving given amounts of peptides in carbon dioxide-free Milli-Q® water.
Samples (1.5 mL volume, 1 mM peptide) were prepared in 4 mM HNO3/96 mM KNO3 solution. To calculate ligand (peptide) concentrations and their protonation constants, at least three consecutive potentiometric titrations were performed.
Three samples (1.5 mL) of 1 mM peptide and CuCl2 with Cu : peptide ratios of 1:1, 1:2 and 1:3 were prepared in 4 mM HNO3/96 mM KNO3. Each sample was titrated separately using a standardized 100 mM NaOH solution. The pH range for all potentiometric […]
All ligand and complex titrations were performed under argon at 25 °C. The data was analyzed using the SUPERQUAD and HYPERQUAD programs.
For the determination of Cu(II) stability constants, peptides a and c–g UV/VIS spectra were recorded in a range of 250–900 nm with a scan resolution of 1 nm, and a scan speed of 0.5 s/nm on a Lambda 950 UV/VIS/NIR spectrophotometer (PerkinElmer). The samples of 1 mM peptide/0.8 mM CuCl2 were prepared in 1 cm path length quartz cuvettes (Hellma) and titrated with small amounts of concentrated NaOH solution. Usually the pH-metric titration spanned from pH 2.9 to pH 12.5. […]
(§6) Table S5. Logarithmic protonation and Cu(II) binding constants (log β and pK) of peptides a-g (b not measured), determined by potentiometry at 25 °C and I=0.1 (KNO3), and competitivity index (CI) values calculated at pH 7.4 for 1 mM Cu(II) and peptides based on respective stability constants.
(§7) Statistical errors on the last digits of log β values, provided by HYPERQUAD, are given in parentheses. […]
(§8) log β pK log β pK log β pK log β pK log β pK log β pK
CuH3L - - - - - - - - - -
CI: Competitivity index calculated for pH 7.4 and peptide L, Cu(II) and Z concentrations of 0.001 M. CI is log KCuZ fulfilling the condition Σijk([CuiHjLk]=[CuZ].3 log *K4N is a protonation-corrected stability constant allowing to compare peptides with different protonation states forming the same type of complexes In general log*KxN, where x stand for number of coordinated nitrogens can be described by log *KxN = log β{CuHn-xL} – log β{HnL} HnL stands for the protonation of coordinating histidine (in position 3 from N-terminus in case of ATCUN motifs) […]
Peptides can be compared easily between each other using both protonation-corrected stability constant (log *K4N) and Competitivity Index at pH 7.4 (CI7.4):
(§9) For log *K4N, the higher the number (less negative value) the higher stability of Cu(II) complexes (only relative meaning – no interpretation of concentrations of species possible).
For CI7.4, the higher the number the higher the stability. […]

[2] = Potentiometric titration of peptides: protonation constants; assay type: physicochemical; conditions: protonation constant, potentiometry, 1 mM peptide, error on last digit in parentheses; for log β H2L / log β HL / log β H3L: 25 °C, I=0.1 (KNO3)
Procedure: as §1, §2, §3, §4, §5
Stock solution preparation: […]
Samples (1.5 mL volume, 1 mM peptide) were prepared in 4 mM HNO3/96 mM KNO3 solution. To calculate ligand (peptide) concentrations and their protonation constants, at least three consecutive potentiometric titrations were performed. […]
The pH range for all potentiometric
All ligand and complex titrations were performed under argon at 25 °C. The data was analyzed using the SUPERQUAD and HYPERQUAD programs. […]
as §6, §7, §8
CuH3L - - - - - - - - - - […]
as §9
For CI7.4, the higher the number the higher the stability. CI is the affinity constant for the imaginary CuZ complex which is equivalent in strength to the probed complex/set of complexes. The advantage of CI is that its unit is M-1, and can be compared with log K values for real complexes.

[3] = potentiometry, error on last digit in parentheses

Compound	pK CuH-2L ([1]; Cu(II) species, potentiometry)	pK CuH-3L ([1]; Cu(II) species, potentiometry)	CI7.4 (competitivity index, log K CuZ) [1]	log *K4N (protonation-corrected stability constant of Cu(II) 4N complex) ([1]; potentiometry)	log β CuH-2L [1, 3]	log β CuH-3L [1, 3]	log β CuL [1, 3]	log β H2L [2]	log β HL [2]	pK CuH-1L ([1]; Cu(II) species, potentiometry)	log β CuH-1L [1, 3]	log β CuHL [1, 3]	log β H3L [2]	pK CuL ([1]; Cu(II) species, potentiometry)	log β CuH2L ([1]; potentiometry, 4 mM HNO3/96 mM KNO3, 1 mM peptide, Cu:peptide 1:1, 1:2, 1:3, pH 2.7-11.6, argon, error on last digit in parentheses)	log β H4L ([2]; 4 mM HNO3/96 mM KNO3, 25 °C, I=0.1, argon, at least three titrations)
NC(=O)[C@H](CO)NC(=O)[C@H](CO)NC(=O)[C@H](Cc1c[nH]c2ccccc12)NC(=O)[C@H](Cc1c[nH]cn1)NC(=O)CCNC(=O)[C@@H](N)Cc1c[nH]c2ccccc12 [e] (H-W[βAla]HWSS-NH2)	4.92	11.58	11.28	-16.804	-3.104(3)	-14.683(9)	6.743(7)	13.700(3)	7.584(3)	–	–	–	–	–	–	–
NCCCC[C@H](NC(=O)[C@H](Cc1c[nH]cn1)NC(=O)CCNC(=O)[C@@H](N)Cc1c[nH]c2ccccc12)C(=O)N[C@@H](CO)C(=O)N[C@@H](CO)C(N)=O [g] (H-W[βAla]HKSS-NH2)	10.10	–	11.29	-16.738	-2.987(9)	–	–	17.755(5)	10.255(3)	4.82	7.108(5)	16.75(1)	23.846(5)	–	–	–
NCC(=O)NCCC(=O)N[C@@H](Cc1c[nH]cn1)C(=O)NCC(=O)N[C@@H](CO)C(=O)N[C@@H](CO)C(N)=O [Peptide c] (H-G[βAla]HGSS-NH2)	5.65	10.4	9.915	-18.426	-4.160(5)	-14.560(8)	7.137(5)	14.266(3)	8.001(2)	–	–	–	–	–	–	–
NCCCC[C@H](N)C(=O)NCCC(=O)N[C@@H](Cc1c[nH]cn1)C(=O)N[C@@H](Cc1c[nH]c2ccccc12)C(=O)N[C@@H](CO)C(=O)N[C@@H](CO)C(N)=O [f] (H-K[βAla]HWSS-NH2)	10.12	11.17	10.52	-17.435	-3.840(7)	-15.007(8)	–	17.632(4)	10.262(3)	5.06	6.280(3)	16.406(9)	23.715(5)	–	–	–
GGHGSS-NH2 [a]	–	11.79	13.61	-14.747	-0.587(5)	-12.38(2)	–	14.160(2)	7.853(1)	–	–	–	–	–	–	–
NCCCC[C@H](NC(=O)[C@H](Cc1c[nH]cn1)NC(=O)CCNC(=O)[C@@H](N)CCCCN)C(=O)N[C@@H](CO)C(=O)N[C@@H](CO)C(N)=O [d] (H-K[βAla]HKSS-NH2)	10.41	–	10.31	-17.537	-4.068(6)	–	16.338(4)	20.563(2)	10.656(3)	10.00	6.337(8)	–	27.860(3)	5.13	26.604(9)	33.875(4)
